Earlier results, collected in patent publication US20040185170A1, “Method for coating drug-containing particles and formulations and dosage units formed therefrom” (priority 2003, published 2004).

Key:
[1] = coating material; from CRC Handbook of Chemistry and Physics, 63rd Edition
[2] = normal atmospheric pressure

ΔHvap (heat of vaporization) [1] | temperature at which it slowly volatilizes [2] | Compound
14,483.4 g cal mol^−1 | – | CCCCCCCCCCCCCCCCO [Cetyl alcohol]
19,372.6 g cal mol^−1 | – | CCCCCCCCCC(=O)O [Capric acid]
14,853.5 g cal mol^−1 | – | CCCCCCCCCCCC(=O)OC [Methyl laurate]
16,051.0 g cal mol^−1 | – | CCCCCCCCCCCCCC(=O)OC [Methyl myristate]
19,214.8 g cal mol^−1 | – | CCCCCCCCCCCCC(=O)O [Tridecanoic acid]
17,003.5 g cal mol^−1 | – | CCCCCCCCCCCCCCCC(=O)OC [Methyl palmitate]
16,585.3 g cal mol^−1 | – | CCCCCCCCCCCC(=O)O [Lauric acid]
19,306.6 g cal mol^−1 | 90-100 °C | CCCCCCCCCCCCCCCCCC(=O)O [Stearic acid]
18,380.1 g cal mol^−1 | – | CCCCCCCCCCCCCC(=O)O [Myristic acid]
20,326.7 g cal mol^−1 | – | CCCCCCCC/C=C\CCCCCCCC(=O)O [Oleic acid]
17,603.6 g cal mol^−1 | – | CCCCCCCCCCCCCCCC(=O)O [Palmitic acid]
